pIC50: −log10 of the molar value. Values joined by “and” are separate entries in the source; they are usually repeats but may differ in a detail not shown here. Identical values can stand only once.
Key:
[1] = system: CCRF-CEM; assay: cells; format: cell-based; details: 10^−5 M, 48 h
[2] = system: K-562; assay: cells; format: cell-based; details: K-562, 10^−5 M, 48 h
[3] = system: MOLT-4; assay: cells; format: cell-based; details: MOLT-4, 10^−5 M, 48 h
[4] = system: RPMI-8226; assay: cells; format: cell-based; details: RPMI-8226, 10^−5 M, 48 h
[5] = system: SR; assay: cells; format: cell-based; details: 10^−5 M, 48 h
[6] = system: A549/ATCC; assay: cells; format: cell-based; details: A549/ATCC, 10^−5 M, 48 h
[7] = system: HOP-62; assay: cells; format: cell-based; details: HOP-62, 10^−5 M, 48 h
[8] = system: HOP-92; assay: cells; format: cell-based; details: HOP-92, 10^−5 M, 48 h
[9] = system: NCI-H226; assay: cells; format: cell-based; details: NCI-H226, 10^−5 M, 48 h
[10] = system: NCI-H23; assay: cells; format: cell-based; details: NCI-H23, 10^−5 M, 48 h
[11] = system: NCI-H322M; assay: cells; format: cell-based; details: 10^−5 M, 48 h
[12] = system: NCI-H460; assay: cells; format: cell-based; details: NCI-H460, 10^−5 M, 48 h
[13] = system: HCC-2998; assay: cells; format: cell-based; details: HCC-2998, 10^−5 M, 48 h
[14] = system: HCT-15; assay: cells; format: cell-based; details: HCT-15, 10^−5 M, 48 h
[15] = system: HT29; assay: cells; format: cell-based; details: HT29, 10^−5 M, 48 h
[16] = system: KM 12; assay: cells; format: cell-based; details: KM 12, 10^−5 M, 48 h
[17] = system: SW-620; assay: cells; format: cell-based; details: SW-620, 10^−5 M, 48 h
[18] = system: SF-268; assay: cells; format: cell-based; details: SF-268, 10^−5 M, 48 h
[19] = system: SNB-19; assay: cells; format: cell-based; details: SNB-19, 10^−5 M, 48 h
[20] = system: SNB-75; assay: cells; format: cell-based; details: SNB-75, 10^−5 M, 48 h
[21] = system: LOX IMVI; assay: cells; format: cell-based; details: 10^−5 M, 48 h
[22] = system: MALME-3M; assay: cells; format: cell-based; details: MALME-3M, 10^−5 M, 48 h
[23] = system: SK-MEL-2; assay: cells; format: cell-based; details: SK-MEL-2, 10^−5 M, 48 h
[24] = system: SK-MEL-28; assay: cells; format: cell-based; details: SK-MEL-28, 10^−5 M, 48 h
[25] = system: SK-MEL-5; assay: cells; format: cell-based; details: SK-MEL-5, 10^−5 M, 48 h
[26] = system: IGROV1; assay: cells; format: cell-based; details: IGROV1, 10^−5 M, 48 h
[27] = system: OVCAR-3; assay: cells; format: cell-based; details: OVCAR-3, 10^−5 M, 48 h
[28] = system: OVCAR-4; assay: cells; format: cell-based; details: OVCAR-4, 10^−5 M, 48 h
[29] = system: OVCAR-5; assay: cells; format: cell-based; details: OVCAR-5, 10^−5 M, 48 h
[30] = system: SK-OV-3; assay: cells; format: cell-based; details: SK-OV-3, 10^−5 M, 48 h
[31] = system: SN12C; assay: cells; format: cell-based; details: 10^−5 M, 48 h
[32] = system: UO-31; assay: cells; format: cell-based; details: UO-31, 10^−5 M, 48 h
[33] = system: PC-3; assay: cells; format: cell-based; details: PC-3, 10^−5 M, 48 h
[34] = system: DU-145; assay: cells; format: cell-based; details: DU-145, 10^−5 M, 48 h
[35] = system: MDA-MB-468; assay: cells; format: cell-based; details: MDA-MB-468, 10^−5 M, 48 h
[36] = biological target: JNK2 (Homo sapiens, UniProt P45984); assay: in vitro kinase assay, GST-c-Jun; format: biochemical
[37] = biological target: p38MAPKα (Homo sapiens, UniProt Q16539); assay: in vitro kinase assay, GST-ATF2; format: biochemical
[38] = system: NCI-60 panel of tumor cell lines

JNK2, sequence (P45984 whole entry): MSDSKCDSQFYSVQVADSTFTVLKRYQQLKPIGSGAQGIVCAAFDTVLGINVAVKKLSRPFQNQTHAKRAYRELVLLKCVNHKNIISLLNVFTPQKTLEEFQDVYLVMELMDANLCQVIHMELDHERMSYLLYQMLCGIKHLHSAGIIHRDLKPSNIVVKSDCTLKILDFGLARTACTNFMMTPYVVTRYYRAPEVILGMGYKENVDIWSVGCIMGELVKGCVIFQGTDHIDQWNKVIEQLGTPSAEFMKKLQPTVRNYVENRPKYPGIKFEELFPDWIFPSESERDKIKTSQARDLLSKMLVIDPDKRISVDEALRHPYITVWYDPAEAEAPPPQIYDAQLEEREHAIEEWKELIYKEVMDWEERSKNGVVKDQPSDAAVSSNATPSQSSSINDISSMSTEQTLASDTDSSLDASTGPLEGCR
p38MAPKα, sequence (Q16539 whole entry): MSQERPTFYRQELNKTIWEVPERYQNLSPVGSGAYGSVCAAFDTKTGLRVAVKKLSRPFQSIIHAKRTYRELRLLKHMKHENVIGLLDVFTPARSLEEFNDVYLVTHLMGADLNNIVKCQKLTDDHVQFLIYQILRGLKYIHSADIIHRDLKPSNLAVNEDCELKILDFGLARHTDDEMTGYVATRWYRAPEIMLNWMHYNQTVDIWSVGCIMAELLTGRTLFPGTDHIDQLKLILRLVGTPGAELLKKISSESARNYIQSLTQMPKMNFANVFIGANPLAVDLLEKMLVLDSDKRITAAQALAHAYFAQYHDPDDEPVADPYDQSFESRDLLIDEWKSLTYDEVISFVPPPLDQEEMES

`O=C1c2ccccc2C(=O)c2c1oc1c2c(=O)[nH]c2ccccc21` [3a, Naphtho[2′,3′:4,5]furo[3,2-c]quinoline-6,7,12(5H)-trione] was tested, and the “Growth percent (G%)” value [1] was 20.72%, the “Growth percent (G%)” value [2] was 55.20% and the “Growth percent (G%)” value [3] was 5.55%. The “Growth percent (G%)” value [4] was 62.72%, the “Growth percent (G%)” value [5] was 43.80% and the “Growth percent (G%)” value [6] was 97.18%. For the same molecule, the “Growth percent (G%)” value [7] was 118.63%, the “Growth percent (G%)” value [8] was 71.42% and the “Growth percent (G%)” value [9] was 78.47%. For the same molecule, the “Growth percent (G%)” value [10] was 65.95%, the “Growth percent (G%)” value [11] was 89.28% and the “Growth percent (G%)” value [12] was 68.27%. For the same molecule, the “Growth percent (G%)” value [13] was 102.57%, the “Growth percent (G%)” value [14] was 44.70% and the “Growth percent (G%)” value [15] was 102.52%. The “Growth percent (G%)” value [16] was 66.22%, the “Growth percent (G%)” value [17] was 89.23% and the “Growth percent (G%)” value [18] was 91.30%. The “Growth percent (G%)” value [19] was 103.72%, the “Growth percent (G%)” value [20] was 112.98% and the “Growth percent (G%)” value [21] was 56.12%. For the same molecule, the “Growth percent (G%)” value [22] was 124.29%, the “Growth percent (G%)” value [23] was 76.92% and the “Growth percent (G%)” value [24] was 112.03%. For the same molecule, the “Growth percent (G%)” value [25] was 79.73%, the “Growth percent (G%)” value [26] was 55.11% and the “Growth percent (G%)” value [27] was −14.81%. For the same molecule, the “Growth percent (G%)” value [28] was −5.49%, the “Growth percent (G%)” value [29] was 102.37% and the “Growth percent (G%)” value [30] was 104.46%. For the same molecule, the “Growth percent (G%)” value [31] was 70.40%, the “Growth percent (G%)” value [32] was 60.44% and the “Growth percent (G%)” value [33] was 65.49%. For the same molecule, the “Growth percent (G%)” value [34] was 82.02%, the “Growth percent (G%)” value [35] was −8.43% and the pIC50 [36] was under 3.70. The “ability to inhibit JNK2 (in words)” value [36] was “did not show any ability to inhibit”, the “ability to inhibit p38MAPKα (in words)” value [37] was “did not show any ability to inhibit” and the pIC50 ([37]; p38MAPKα IC50, 10 μM GST-ATF2) was under 3.70. The “NCI Cytotoxicity Screening Average G%” value ([38]; Table 4, 10 μM one-dose screen) was 68% and the “Average G%” value ([38]; average over tested NCI-60 cell lines, 10^−5 M (10 μM), 48 h) was 68% and 68.19%.

— publication PMC6543826 (Bioorganic chemistry, 2018)
